The values below come from patent publication US8309579B2, “N-hydroxyamide derivatives and use thereof” (Merck Serono SA, priority 2005, dated 2012).

The target in one assay is metalloelastase (MMP-12) (Homo sapiens, UniProt P39900). The assay is described as follows: MMP-12 enzyme inhibition assay (coumarin-labelled peptide substrate). Type of assay: biochemical. On the procedure:
(§1) Stock solutions were made up as follows: Assay Butter: 100 mM Tris-HCl pH 7.6 containing 100 mM NaCl, 10 mM CaCl2, and 0.05% Brij 35.
(§2) Substrate: 0.4 mM McaPLGLDpaAR (from Bachem) (0.437 mg/ml) stock solution in 100% DMSO (stored at −20° C.). Dilute to 8 μM in assay butter.
(§3) Test Compounds were prepared initially as 10 mM compound solution in 100% DMSO, diluted to 1 mM in 100% DMSO, then serially diluted 3-fold in 100% DMSO across columns 1-10 of a 96-well microtitre plate Assay concentration range, 100 μM (column 1) to 5.1 nM (column 10).
(§4) The assay was performed in a total volume of 100 μL per well in 96-well microtitre plates. Activated enzyme (20 μL) was added to the wells followed by 20 μL of assay butter. Appropriate concentrations of test compounds dissolved in 10 μL of DMSO were then added followed by 50 μL of McaPLGLDpaAR (8 μM, prepared by dilution of DMSO stock in assay butter). For each assay ten concentrations of test compound were examined in duplicate. Control wells lack either enzyme or test compound. The reactions were incubated at 37° C. for 2 hours. The fluorescence at 405 nm was measured immediately with an SLT Fluostar fluorometer (SL T Labinstruments GmbH, Grödig, Austria) using 320 nm excitation, without stopping the reaction.
(§5) The effect of the test compound was determined from the dose response curve generated by the 10 duplicate concentrations of inhibitor. […]

For the next assay, the target named is T1, collagenase (MMP-1) (Homo sapiens, UniProt P03956).
T1 sequence (P03956 100-469): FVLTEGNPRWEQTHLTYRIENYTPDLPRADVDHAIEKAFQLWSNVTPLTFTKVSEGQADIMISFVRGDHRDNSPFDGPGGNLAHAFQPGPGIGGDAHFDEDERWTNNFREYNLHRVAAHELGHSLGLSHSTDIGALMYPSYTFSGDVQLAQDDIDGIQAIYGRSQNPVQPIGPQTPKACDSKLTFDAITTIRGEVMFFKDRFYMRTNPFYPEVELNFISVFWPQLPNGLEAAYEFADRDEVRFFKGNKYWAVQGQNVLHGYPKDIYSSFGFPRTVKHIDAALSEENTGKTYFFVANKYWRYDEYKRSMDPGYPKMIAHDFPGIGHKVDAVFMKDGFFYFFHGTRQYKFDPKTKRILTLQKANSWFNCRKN
The assay is described as follows: MMP-1 enzyme inhibition assay (coumarin-labelled peptide substrate). Type of assay: biochemical. How it is done: as §1, §2, §3, §4, §5

Another assay concerns the target T2, gelatinase A (MMP-2) (Homo sapiens, UniProt P08253).
T2 sequence (P08253 110-660): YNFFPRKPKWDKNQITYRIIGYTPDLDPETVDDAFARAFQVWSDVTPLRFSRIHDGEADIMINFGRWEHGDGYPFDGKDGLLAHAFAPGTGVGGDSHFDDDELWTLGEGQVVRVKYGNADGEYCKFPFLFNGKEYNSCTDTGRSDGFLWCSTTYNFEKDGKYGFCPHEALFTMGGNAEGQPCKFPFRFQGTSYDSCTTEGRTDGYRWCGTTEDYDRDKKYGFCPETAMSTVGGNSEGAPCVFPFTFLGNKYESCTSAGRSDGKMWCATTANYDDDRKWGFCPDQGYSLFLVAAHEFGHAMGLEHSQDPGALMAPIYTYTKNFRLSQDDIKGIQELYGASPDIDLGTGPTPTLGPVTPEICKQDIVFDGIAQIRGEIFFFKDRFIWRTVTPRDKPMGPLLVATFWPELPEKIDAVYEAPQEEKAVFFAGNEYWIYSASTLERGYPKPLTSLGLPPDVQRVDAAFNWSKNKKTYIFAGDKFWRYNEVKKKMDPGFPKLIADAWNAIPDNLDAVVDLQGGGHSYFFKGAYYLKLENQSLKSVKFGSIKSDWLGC
The assay is described as follows: MMP-2 enzyme inhibition assay (coumarin-labelled peptide substrate). Type of assay: biochemical. On the procedure: as §1, §2, §3, §4, §5

Assay [1] relates to IL-2-induced peritoneal recruitment of lymphocytes. The assay is described as follows: IL-2-induced peritoneal recruitment of lymphocytes. Type of assay: in vivo, C3H/HEN mice. To be noted: mice, 3 mg/kg p.o., 15 min prior to IL-2; cells collected 24 h after IL-2. On the procedure:
Administration of IL-2 intraperitoneally causes migration of lymphocytes into the intraperitoneal cavity. This is a model for the cellular migration that occurs during inflammation.
C3H/HEN mice (Elevage Janvier, France) were intraperitoneally injected with IL-2 (20 μg/kg, in saline).
Compounds of the invention were suspended in 0.5% carboxymethylcellulose (CMC)/0.25% tween-20 and were administered by s.c. or p.o. route (10 ml/kg) 15 min prior to administration of IL-2.
Twenty-four hours after administration of IL-2, peritoneal white blood cells were collected by 3 successive lavages of the peritoneal cavity with 5 ml phosphate buffered saline (PBS)-1 mM EDTA (+4° C.). The suspension was centrifuged (1700 g×10 min at +4° C.). The resulting pellet was suspended in 1 ml PBS-1 mM EDTA.
Lymphocytes were identified and counted using a Beckman/Coulter counter.
The animals were divided into 6 groups (6 mice each group):
Inhibition of lymphocyte recruitment was calculated as follows:
Where Ly 1=Number of lymphocytes in group 1 (E3/μl), Ly 2=Number of lymphocytes in group 2 (E3/μl), Ly X=Number of lymphocytes in group X (3-5) (E3/μl).

Some results are limits rather than exact numbers.

Sequence of metalloelastase (MMP-12) (P39900 106-470): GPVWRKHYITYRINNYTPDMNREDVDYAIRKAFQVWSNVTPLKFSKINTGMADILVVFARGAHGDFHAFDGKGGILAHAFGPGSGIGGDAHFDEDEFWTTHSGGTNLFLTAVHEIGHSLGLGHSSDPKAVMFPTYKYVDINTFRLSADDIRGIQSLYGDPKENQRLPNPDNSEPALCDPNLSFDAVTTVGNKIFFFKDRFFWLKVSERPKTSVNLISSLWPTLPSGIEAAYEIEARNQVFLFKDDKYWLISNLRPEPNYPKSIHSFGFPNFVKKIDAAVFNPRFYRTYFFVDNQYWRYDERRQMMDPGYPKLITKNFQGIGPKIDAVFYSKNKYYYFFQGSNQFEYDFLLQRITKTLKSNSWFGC

Turning to `COc1ccc(N2CCN(C(=O)[C@@H](CC(C)C)CN(O)C=O)CC2)cc1` [Example 1, hydroxy((2S)-2-{[4-(4-methoxyphenyl)piperazin-1-yl]carbonyl}-4-methylpentyl)formamide], the IC50 was 68 nM on metalloelastase (MMP-12), more than 5000 nM on collagenase (MMP-1) and 13 nM against gelatinase A (MMP-2). For the same compound, the “% inhibition of IL-2-induced peritoneal recruitment of lymphocytes” value in assay [1] is 35 ± 10%.

For the compound `CC(C)C[C@@H](CN(O)C=O)C(=O)N1CCN(c2ccc(-c3ccccc3)cc2)CC1` [Example 2, {(2S)-2-[(4-biphenyl-4-ylpiperazin-1-yl)carbonyl]-4-methylpentyl}hydroxyformamide], the IC50 is 8 nM on metalloelastase (MMP-12), more than 5000 nM against collagenase (MMP-1) and 9 nM on gelatinase A (MMP-2).

In general, IC50 refers to the concentration needed to halve the response being measured. Low values mean greater potency in that assay, high ones weaker potency in that assay.
